Source: ChEMBL document CHEMBL1781934, “Syntheses and studies of amamistatin B analogs reveals that anticancer activity is relatively independent of stereochemistry, ester or amide linkage and select replacement of one of the metal chelating groups” (Bioorg Med Chem Lett, 2011)
≈ marks a conversion by molar mass, not a printed value.

Assays:
PC-3 [1] = test: Anticancer activity against human PC3 cells after 72 hrs by crystal violet biomass reduction assay; assay type: functional, cell-based; settings: PC-3, 72 h
MCF7 [2] = test: Growth inhibition of human MCF7 cells at 20 uM after 72 hrs by crystal violet biomass reduction assay; assay type: functional; settings: MCF7, 72 h, read-out: GI
MCF7 [3] = test: Anticancer activity against human MCF7 cells after 72 hrs by crystal violet biomass reduction assay; assay type: functional, cell-based; settings: MCF7, 72 h
PC-3 [4] = test: Growth inhibition of human PC3 cells at 20 uM after 72 hrs by crystal violet biomass reduction assay; assay type: functional; settings: PC-3, 72 h, read-out: GI
P388 = test: Cytotoxicity against mouse P388 cells; assay type: functional, cell-based

SMILES	IC50 (PC-3 [1]) [nM]	inhibition of growth at 20 µM (MCF7 [2]) [%]	IC50 (MCF7 [3]) [nM]	inhibition of growth at 20 µM (PC-3 [4]) [%]	IC50 (P388) [µg/mL]
CCCCCCC[C@H](CC(=O)N[C@H]1CCCCN(O)C1=O)OC(=O)[C@H](CCCCN(O)C=O)NC(=O)c1nc(-c2ccccc2O)oc1C	4000	94	200	72	–
CCCCCCC[C@@H](CC(=O)N[C@H]1CCCCN(O)C1=O)OC(=O)[C@H](CCCCN(O)C=O)NC(=O)c1nc(-c2ccccc2O)oc1C	8000	91	320	62	–
CCCCCCC[C@H](CC(=O)N[C@H]1CCCCN(O)C1=O)NC(=O)[C@H](CCCCN(O)C=O)NC(=O)c1nc(-c2ccccc2O)oc1C	9000	96	550	72	–
CCCCCCC[C@@H](CC(=O)N[C@H]1CCCCN(O)C1=O)NC(=O)[C@H](CCCCN(O)C=O)NC(=O)c1nc(-c2ccccc2O)oc1C	14000	95	2000	68	–
CCCCCCC[C@H](CC(=O)N[C@H]1CCCCN(O)C1=O)OC(=O)[C@H](CCCCN(O)C=O)NC(=O)c1coc(-c2ccccc2O)n1	3750	91	450	85	–
CCCCCCC[C@@H](CC(=O)N[C@H]1CCCCN(O)C1=O)OC(=O)[C@H](CCCCN(O)C=O)NC(=O)c1coc(-c2ccccc2O)n1	9000	93	800	60	–
CCCCCCC[C@H](CC(=O)N[C@H]1CCCCN(O)C1=O)OC(=O)[C@H](CCCCN(O)C=O)NC(=O)[C@@H]1COC(c2ccccc2O)=N1	3000	87	240	83	–
CCCCCCC[C@@H](CC(=O)N[C@H]1CCCCN(O)C1=O)OC(=O)[C@H](CCCCN(O)C=O)NC(=O)[C@@H]1COC(c2ccccc2O)=N1	3000	89	500	79	–
CCCCCCC[C@H](CC(=O)N[C@H]1CCCCN(O)C1=O)OC(=O)[C@H](CCCCN(O)C=O)NC(=O)[C@H]1COC(c2ccccc2O)=N1	2000	92	320	90	–
CCCCCCC[C@@H](CC(=O)N[C@H]1CCCCN(O)C1=O)OC(=O)[C@H](CCCCN(O)C=O)NC(=O)[C@H]1COC(c2ccccc2O)=N1	7500	90	3000	79	–
CCCCCCC[C@H](CC(=O)N[C@H]1CCCCN(O)C1=O)OC(=O)[C@H](CCCCN(O)C=O)NC(=O)c1cccc(O)c1O	–	86	6000	40	–
CCCCCCC[C@@H](CC(=O)N[C@H]1CCCCN(O)C1=O)OC(=O)[C@H](CCCCN(O)C=O)NC(=O)c1cccc(O)c1O	7000	81	1000	63	–
CCCCCCC[C@H](OC(=O)[C@@H](CCCCN(O)C=O)NC(=O)c1nc(-c2ccccc2O)oc1C)C(C)(C)C(=O)N[C@H]1CCCCN(O)C1=O	–	–	–	–	0.016 (≈ 0.0224 µM)
CCCCCCC[C@H](OC(=O)[C@@H](CCCCN(O)C=O)NC(=O)c1nc(-c2cc(OC)ccc2O)oc1C)C(C)(C)C(=O)N[C@H]1CCCCN(O)C1=O [AMAMISTATIN A]	–	–	–	–	0.015 (≈ 0.0201 µM)
